Numbers after ± are expanded uncertainties.
Assay: wn = mass fraction of the nth substance listed
Conditions: 100 kPa, Liquid, Pycnometric method

Row | SMILES | mass density (283.15 K, w1 = 0.1527) | mass density (293.15 K, w1 = 0.2052) | mass density (303.15 K, w1 = 0.2653) | mass density (283.15 K, w1 = 0.0851) | mass density (293.15 K, w1 = 0.1354) | mass density (303.15 K, w1 = 0.21)
1 | CC1=CC(=O)c2ccccc2C1=O [2-methyl-1,4-naphthalenedione] + C1COCCO1 | 1052.8 ± 14 kg/m3 | 1056.2 ± 14 kg/m3 | 1057.1 ± 14 kg/m3 |  |  | 
2 | O=C1OC(=O)c2ccccc21 [isobenzofuran-1,3-dione] + C1COCCO1 |  |  |  | 1052.7 ± 14 kg/m3 | 1059.7 ± 14 kg/m3 | 1061.9 ± 14 kg/m3

— the NIST ThermoML archive (doi:10.1021/acs.jced.7b00609)
